Measured values taken from patent publication US20230017045A1, “PYRIDINE AND PYRIMIDINE CARBOXYLATE HERBICIDES AND METHODS OF USE THEREOF” (Dow AgroSciences LLC, priority 2017, published 2023).

What follows are molecules tested on test plant species (assay: Post-emergent herbicidal activity test (greenhouse, foliar spray, visual growth reduction)). Conditions: post-emergence, 336 h, ECHCG: barnyardgrass (Echinochloa crus-galli), 140 g ai/ha, 14 days after application, read-out: Visual Growth Reduction (%) 14 Days After Application, ECHCG.
Format: in vivo
Procedure: Post-emergent Test: Seeds or nutlets of the desired test plant species were planted in Sun Gro Metro-Mix® 360 planting mixture, which typically has a pH of 6.0 to 6.8 and an organic matter content of about 30 percent, in plastic pots with a surface area of 64 square centimeters. In some aspects, to ensure good germination and healthy plants, a fungicide treatment and/or other chemical or physical treatment was applied. The plants were grown for 7-21 d in a greenhouse with an approximate 15 h photoperiod which was maintained at 23-29° C. during the day and 22-28° C. during the night. Nutrients and water were added on a regular basis and supplemental lighting was provided with overhead metal halide 1000-Watt lamps as necessary. Plants were used for testing when they reached the first or second true leaf stage. A weighed amount, determined by the highest rate to be tested, of each test compound was placed in a 25 mL glass vial and was dissolved in 4 mL of a 97:3 v/v mixture of acetone and DMSO to obtain concentrated stock solutions. […] The concentrated stock solutions obtained were diluted with 20 mL of an aqueous mixture containing acetone, water, isopropyl alcohol, DMSO, […] crop oil concentrate, and X-77 surfactant in a 48.5:39:10:1.5:1.0:0.02 v/v ratio to obtain spray solutions containing the application rate. Compound requirements are based upon a 12 mL application volume at a rate of 187 liters per hectare (L/ha). Formulated compounds were applied to the plant material with an overhead Mandel track sprayer equipped with […] nozzles calibrated to deliver 187 L/ha over an application area of 0.64 square meters at a spray height of 18 inches (43 cm) above the average plant canopy height. Control plants were sprayed in the same manner with the solvent blank. The treated plants and control plants were placed in a greenhouse as described above and watered by subirrigation to prevent wash-off of the test compounds. After 14 d, the condition of the test plants as compared with that of the nontreated and control plants was determined visually and scored on a scale of 0 to 100 percent where 0 corresponds to no injury and 100 corresponds to complete control. In the reporting of the results, Table A: Percent Growth Reduction Conversion Table was used.
C=Cc1c(C(F)(F)F)ccc(-c2nc(C(=O)OC)c(Cl)cc2F)c1Cl [F338, Methyl 3-chloro-6-(2-chloro-4-(trifluoromethyl)-3-vinylphenyl)-5-fluoropicolinate] was tested, and the pest or weed control at 140 g/ha was 0 to 29%.
In the case of COC(=O)c1nc(-c2ccc(OS(C)(=O)=O)cc2F)c(F)cc1Cl [F343], the pest or weed control at 140 g/ha is reported as 85 to 94%.

Same assay, conditions: post-emergence, 336 h, IPOHE: ivy-leaf morning glory (Ipomoea hederacea), 140 g ai/ha, 14 days after application, read-out: Visual Growth Reduction (%) 14 Days After Application, IPOHE
In the case of C=Cc1c(C(F)(F)F)ccc(-c2nc(C(=O)OC)c(Cl)cc2F)c1Cl [F338, Methyl 3-chloro-6-(2-chloro-4-(trifluoromethyl)-3-vinylphenyl)-5-fluoropicolinate], the pest or weed control at 140 g/ha is reported as 95 to 100%.
Molecule COC(=O)c1nc(-c2ccc(OS(C)(=O)=O)cc2F)c(F)cc1Cl [F343] has a pest or weed control at 140 g/ha of 95 to 100%.

Same assay, conditions: post-emergence, 336 h, KCHSC: kochia (Bassia scoparia), 140 g ai/ha, 14 days after application, read-out: Visual Growth Reduction (%) 14 Days After Application, KCHSC
C=Cc1c(C(F)(F)F)ccc(-c2nc(C(=O)OC)c(Cl)cc2F)c1Cl [F338, Methyl 3-chloro-6-(2-chloro-4-(trifluoromethyl)-3-vinylphenyl)-5-fluoropicolinate] was tested, and the pest or weed control at 140 g/ha was 45 to 59%.
With COC(=O)c1nc(-c2ccc(OS(C)(=O)=O)cc2F)c(F)cc1Cl [F343] the pest or weed control at 140 g/ha was 85 to 94%.

Same assay, conditions: post-emergence, 336 h, ORYSA: rice (Oryza sativa), 140 g ai/ha, 14 days after application, read-out: Visual Growth Reduction (%) 14 Days After Application, ORYSA
In the case of C=Cc1c(C(F)(F)F)ccc(-c2nc(C(=O)OC)c(Cl)cc2F)c1Cl [F338, Methyl 3-chloro-6-(2-chloro-4-(trifluoromethyl)-3-vinylphenyl)-5-fluoropicolinate], the pest or weed control at 140 g/ha is reported as 0 to 29%.
In the case of COC(=O)c1nc(-c2ccc(OS(C)(=O)=O)cc2F)c(F)cc1Cl [F343], the pest or weed control at 140 g/ha is reported as 30 to 44%.

Same assay, conditions: post-emergence, 336 h, SETFA: giant foxtail (Setaria faberi), 140 g ai/ha, 14 days after application, read-out: Visual Growth Reduction (%) 14 Days After Application, SETFA
Molecule C=Cc1c(C(F)(F)F)ccc(-c2nc(C(=O)OC)c(Cl)cc2F)c1Cl [F338, Methyl 3-chloro-6-(2-chloro-4-(trifluoromethyl)-3-vinylphenyl)-5-fluoropicolinate] has a pest or weed control at 140 g/ha of 75 to 84%.
COC(=O)c1nc(-c2ccc(OS(C)(=O)=O)cc2F)c(F)cc1Cl [F343] showed a pest or weed control at 140 g/ha of 85 to 94%.

Same assay, conditions: post-emergence, 336 h, SORVU: grain sorghum (Sorghum vulgare), 140 g ai/ha, 14 days after application, read-out: Visual Growth Reduction (%) 14 Days After Application, SORVU
C=Cc1c(C(F)(F)F)ccc(-c2nc(C(=O)OC)c(Cl)cc2F)c1Cl [F338, Methyl 3-chloro-6-(2-chloro-4-(trifluoromethyl)-3-vinylphenyl)-5-fluoropicolinate] showed a pest or weed control at 140 g/ha of 85 to 94%.
COC(=O)c1nc(-c2ccc(OS(C)(=O)=O)cc2F)c(F)cc1Cl [F343] was tested, and the pest or weed control at 140 g/ha was 95 to 100%.

Same assay, conditions: post-emergence, 336 h, STEME: common chickweed (Stellaria media), 140 g ai/ha, 14 days after application, read-out: Visual Growth Reduction (%) 14 Days After Application, STEME
C=Cc1c(C(F)(F)F)ccc(-c2nc(C(=O)OC)c(Cl)cc2F)c1Cl [F338, Methyl 3-chloro-6-(2-chloro-4-(trifluoromethyl)-3-vinylphenyl)-5-fluoropicolinate] was tested, and the pest or weed control at 140 g/ha was 0 to 29%.
For COC(=O)c1nc(-c2ccc(OS(C)(=O)=O)cc2F)c(F)cc1Cl [F343], the pest or weed control at 140 g/ha was 0 to 29%.

Same assay, conditions: post-emergence, 336 h, TRZAS: wheat, spring (Triticum aestivum), 140 g ai/ha, 14 days after application, read-out: Visual Growth Reduction (%) 14 Days After Application, TRZAS
Work on C=Cc1c(C(F)(F)F)ccc(-c2nc(C(=O)OC)c(Cl)cc2F)c1Cl [F338, Methyl 3-chloro-6-(2-chloro-4-(trifluoromethyl)-3-vinylphenyl)-5-fluoropicolinate] yielded a pest or weed control at 140 g/ha of 30 to 44%.
For COC(=O)c1nc(-c2ccc(OS(C)(=O)=O)cc2F)c(F)cc1Cl [F343], the pest or weed control at 140 g/ha was 60 to 74%.

Same assay, conditions: post-emergence, 336 h, blackgrass (Alopecurus myosuroides), 14 Days After Application, 140 g ai/ha, read-out: Visual Growth Reduction (%) ALOMY
In the case of C=Cc1c(C(F)(F)F)ccc(-c2nc(C(=O)OC)c(Cl)cc2F)c1Cl [F338, Methyl 3-chloro-6-(2-chloro-4-(trifluoromethyl)-3-vinylphenyl)-5-fluoropicolinate], the pest or weed control at 140 g/ha is reported as 0 to 29%.
In the case of COC(=O)c1nc(-c2ccc(OS(C)(=O)=O)cc2F)c(F)cc1Cl [F343], the pest or weed control at 140 g/ha is reported as 0 to 29%.

Same assay, conditions: post-emergence, 336 h, canada thistle (Cirsium arvense), 14 Days After Application, 140 g ai/ha, read-out: Visual Growth Reduction (%) CIRAR
With COC(=O)c1nc(-c2ccc(OS(C)(=O)=O)cc2F)c(F)cc1Cl [F343] the pest or weed control at 140 g/ha was 95 to 100%.

Same assay, conditions: post-emergence, 336 h, crabgrass (Digitaria sanguinalis), 14 Days After Application, 140 g ai/ha, read-out: Visual Growth Reduction (%) DIGSA
C=Cc1c(C(F)(F)F)ccc(-c2nc(C(=O)OC)c(Cl)cc2F)c1Cl [F338, Methyl 3-chloro-6-(2-chloro-4-(trifluoromethyl)-3-vinylphenyl)-5-fluoropicolinate] was tested, and the pest or weed control at 140 g/ha was 60 to 74%.
In the case of COC(=O)c1nc(-c2ccc(OS(C)(=O)=O)cc2F)c(F)cc1Cl [F343], the pest or weed control at 140 g/ha is reported as 85 to 94%.

Same assay, conditions: post-emergence, 336 h, lambsquarters (Chenopodium album), 14 Days After Application, 140 g ai/ha, read-out: Visual Growth Reduction (%) CHEAL
C=Cc1c(C(F)(F)F)ccc(-c2nc(C(=O)OC)c(Cl)cc2F)c1Cl [F338, Methyl 3-chloro-6-(2-chloro-4-(trifluoromethyl)-3-vinylphenyl)-5-fluoropicolinate] was tested, and the pest or weed control at 140 g/ha was 85 to 94%.
COC(=O)c1nc(-c2ccc(OS(C)(=O)=O)cc2F)c(F)cc1Cl [F343] showed a pest or weed control at 140 g/ha of 85 to 94%.

Same assay, conditions: post-emergence, 336 h, redroot pigweed (Amaranthus retroflexus), 14 Days After Application, 140 g ai/ha, read-out: Visual Growth Reduction (%) AMARE
With C=Cc1c(C(F)(F)F)ccc(-c2nc(C(=O)OC)c(Cl)cc2F)c1Cl [F338, Methyl 3-chloro-6-(2-chloro-4-(trifluoromethyl)-3-vinylphenyl)-5-fluoropicolinate] the pest or weed control at 140 g/ha was 95 to 100%.
COC(=O)c1nc(-c2ccc(OS(C)(=O)=O)cc2F)c(F)cc1Cl [F343] gave a pest or weed control at 140 g/ha of 95 to 100%.

Same assay, conditions: post-emergence, 336 h, wild oat (Avena fatua), 14 Days After Application, 140 g ai/ha, read-out: Visual Growth Reduction (%) AVEFA
Work on C=Cc1c(C(F)(F)F)ccc(-c2nc(C(=O)OC)c(Cl)cc2F)c1Cl [F338, Methyl 3-chloro-6-(2-chloro-4-(trifluoromethyl)-3-vinylphenyl)-5-fluoropicolinate] yielded a pest or weed control at 140 g/ha of 30 to 44%.
Work on COC(=O)c1nc(-c2ccc(OS(C)(=O)=O)cc2F)c(F)cc1Cl [F343] yielded a pest or weed control at 140 g/ha of 30 to 44%.

Same assay, conditions: post-emergence, 336 h, yellow nutsedge (Cyperus esculentus), 14 Days After Application, 140 g ai/ha, read-out: Visual Growth Reduction (%) CYPES
In the case of C=Cc1c(C(F)(F)F)ccc(-c2nc(C(=O)OC)c(Cl)cc2F)c1Cl [F338, Methyl 3-chloro-6-(2-chloro-4-(trifluoromethyl)-3-vinylphenyl)-5-fluoropicolinate], the pest or weed control at 140 g/ha is reported as 0 to 29%.
Work on COC(=O)c1nc(-c2ccc(OS(C)(=O)=O)cc2F)c(F)cc1Cl [F343] yielded a pest or weed control at 140 g/ha of 30 to 44%.
